Experimental data reported in US11465989B2, “Guanidine compounds and use thereof” (IMMUNOMET THERAPEUTICS INC., priority 2014, dated 2022).
pIC50: −log10 of the molar value. Where a name gives a salt, the structure may show the parent alone. Read-outs that look alike come from different tables or passages of the source.

How the values were obtained:
[1] = system: A549 cells; test: Inhibition of OCR (XF Analyzer); assay type: cell-based
Text: The electron transfer complex in mitochondria is composed of 5 complexes. The complex I accept electrons from NADH produced from glycolysis and TCA cycle and the electrons move to complex […] and the electron is finally transferred to O2 and water molecule is generated. During the electron transfer, proton gradient is generated and the chemical gradient is a driving source to synthesize ATP at complex V. The mitochondrial inhibition of complex I indirectly assessed by measuring the oxygen consumption rate (OCR) at complex IV. […] The solution outside of cells becomes acidic (lower pH) as lactate is transported to outside of cells. OCR and Extracellular acidification rate (ECAR) are determined by XF Analyzer (Seahorse Biosciences).
A549 cells were purchased from American Type Tissue Culture Collection ([…]) and cultured in RPMI 1640 supplied with 10% fetal bovine serum (FBS) and antibiotic-antimycotic (Lifetech, CA). A549 cells were separated with 0.5% Trypsin-EDTA and 3,000 cells were plated on 1 mg/ml poly-D-lysine (Sigma, P6407) coated XF 96 well […]. A549 cells were allowed to adhere to the wells for 24 hours under the condition of temperature, 37° C. and 5% CO2 The sensor cartridge of XF Analyzer was soaked in 200 Ad of Calibrant solution (Seahorse, MA) in a clear 96-well plate at 37° C. for 24 hours. The compounds of the present invention were diluted with RPMI 1640 without FBS, transferred to A549 cells on XF 96 well plate, and incubated further for 23 hours at 37° C. and 5% CO2. After incubation, the compound solution was exchanged with pre-warmed and pH adjusted (pH7.4) XF assay media (Seahorse) supplied with 15 mM D-glucose (Sigma), 15 mM sodium pyruvate (Lifetechnologies, CA) and 4 mM L-glutamine (Lifetechnologies, CA). The compounds of present invention were prepared in XF Assay media and added to the assay plate. The assay plate was equilibrated in XF Analyzer for 1 hour, and the reading were started by sensor cartridge. The cytotoxicity assay was followed using Cyquant (Lifetechnologies, CA) in order to calibrate the inhibition with cytotoxicity of compounds. The concentrations of the compounds were tested at […] and IC50 value was obtained from the inhibited values. That is, from OCR inhibition values at each concentration of the compound, IC50 was calculated according to Prism's dose response curve fitting.
In Table 1, the levels of OCR IC50 are evaluated by the following.

[2] = system: SK-MEL-28 cells; test: Cytotoxicity in low glucose condition (MTT); assay type: cell-based; details: SK-MEL-28, 0.75 mM glucose, 72 hours, read-out: SK-MEL-28 0.75 mM glucose Cell viability (IC50 ia)
Text: The inhibition of oxidative phosphorylation (OXPHOS) is not cytotoxic to cells in normal glucose condition, because it is postulated that normal cells have compensatory mechanism under energy stress conditions such as low glucose. However OXPHOS inhibitors show cytotoxic effect on cells in the glucose deprived condition (BirsoyK, 2014). The glucose deprived condition is observed in tumor microenvironment potentially due to poor angiogenesis. Therefore the OXPHOS inhibitors may show anti-cancer effect on cancer cells in low glucose condition that may depict tumor microenvironment.
The compounds of the present invention were evaluated their cytotoxicity in SK-MEL-28, melanoma with 0.75 mM glucose supplement. The cytotoxic effect is compared with the cytotoxicity caused by phenformin. The cytotoxicity in low glucose condition is correlated with inhibition of oxygen consumption in mitochondria.
SK-MEL-28 (HTB-72) is a melanoma cell line obtained from ATCC (MA) and cultured in RPMI 1640 media (Lifetechnologies, CA) with supplement of 10% FBS and antibiotic-antimycotic (Lifetechnologies, CA). RPMI 1640 (-Glucose) was used to prepare low glucose media and 0.75 mM glucose was supplied with D-(+)-glucose solution from Sigma. SK-MEL-28 cells were separated from culture plate using 0.5% trypsin-EDTA and 5,000 cells were plated in 96-well plate with low glucose media. After incubation at 37° C. for 24 hour, 5% CO2, the cells were treated with the compounds of present invention in FBS-free media for 72 hours. The cytotoxicity was measured by the MTT (AMRESCO, OH) assay. NADH-dependent cellular oxidoreductase reduces MTT to its insoluble […] with purple color. The enzyme depends on cell number or energy state of cells. 10 μl of 5 mg/ml MIT solution was added to each well of the assay plate and skip the well for blank. The plate was incubated at 37° C. and 5% CO2 for 2 hours. The MTT solution was removed from each well and 100 μl of DMSO was added. The plate was read by VICTOR X3 Multilabel Counter at the wavelength of 550 nm. In Table 2, the levels of IC50 are evaluated by the following criteria.

SMILES	pIC50 ([1]; Homo sapiens, A549, 24 h)	pIC50 ([2]; Homo sapiens)	pIC50 ([1]; A549, 24 hrs)	pIC50 [2]
N=C(N)NC(=N)NCCc1ccc(Br)c(I)c1 [Example 75, N-1-(3-iodo-4-bromo)phenethylbiguanide hydrochloride]	> 5.70	> 5.30		
N=C(N)NC(=N)NCc1ccc(-c2ccccc2)cc1 [Example 49, N-1-(4-phenyl)benzylbiguanide hydrochloride]	< 5.30	< 5.00		
COc1cc(Cl)ccc1CCNC(=N)NC(=N)N [Example 80, N-1-(2-methoxy-4-chloro)phenethylbiguanide hydrochloride]	> 5.70	< 5.00		
Cc1cc(F)ccc1CCNC(=N)N [Example 169, 1-(4-fluoro-2-methylphenethyl)guanide hydrochloride]	< 5.30	< 5.00		
Cc1cc(F)ccc1CCNC(=N)NC(=N)N [Example 17, N-1-(4-fluoro-2-methyl)phenethylbiguanide hydrochloride]	5.30 to 5.70	< 5.00		
N=C(N)NC(=N)NCCc1ccc2c(c1)CCCC2 [Example 44, N-1-2-(5,6,7,8-tetrahydronaphthalen-2-yl)ethylbiguanide hydrochloride]	5.30 to 5.70	> 5.30		
Cc1cc(CNC(=N)NC(=N)N)ccc1Br [Example 68, N-1-(4-bromo-3-methyl)benzylbiguanide hydrochloride]	5.30 to 5.70	5.00 to 5.30		
N=C(N)NC(=N)NCCc1ccc2c(c1)CCCC2 [Example 30, N-1-(2-(5,6,7,8-tetrahydronaphthalen-2-yl)ethyl)biguanide hydrochloride]			< 5.30	> 5.30
Cc1ccc(CCNC(=N)N)cc1C [Example 133, 1-(3,4-dimethylphenethyl)guanide hydrochloride]	> 5.70	5.00 to 5.30		
CNC(=N)NC(=N)NCCc1ccc(Cl)c(Cl)c1 [Example 122, N-1-(3,4-dichloro)phenethyl-N5-methylbiguanide hydrochloride]	< 5.30	5.00 to 5.30		
Cc1ccc(CCNC(=N)NC(=N)N)cc1Cl [Example 50, N-1-(3-chloro-4-methyl)phenethylbiguanide hydrochloride]	5.30 to 5.70	> 5.30		
N=C(N)NC(=N)NCCc1ccc(I)c(Cl)c1 [Example 78, N-1-(3-chloro-4-iodo)phenethylbiguanide hydrochloride]	> 5.70	> 5.30		
Cc1cc(CCNC(=N)NC(=N)N)ccc1Cl [Example 61, N-1-(4-chloro-3-methyl)phenethylbiguanide hydrochloride]	5.30 to 5.70	> 5.30		
N=C(N)NCCC1CCCC1 [Example 204, 1-(2-cyclopentylethyl) guanide hydrochloride]	5.30 to 5.70	< 5.00		
Cc1ccccc1CCNC(=N)N [Example 161, 1-(2-methylphenethyl)guanide hydrochloride]	5.30 to 5.70	< 5.00		
N=C(N)NCC1CCCCC1 [Example 205, 1-(1-cyclohexylmethyl) guanide hydrochloride]	5.30 to 5.70	< 5.00		

The next lines start with results.

pIC50 ([1]; Homo sapiens, A549, 24 h)	SMILES	pIC50 ([2]; Homo sapiens)	pIC50 ([1]; A549, 24 hrs)	pIC50 [2]
5.30 to 5.70	N=C(N)NC(=N)NCCc1ccc2c(c1)CCC2 [Example 66, N-1-2-(2,3-dihydro-1H-inden-5-yl)ethylbiguanide hydrochloride]	> 5.30		
> 5.70	Cc1ccccc1CCNC(=N)NC(=N)N [Example 22, N-1-(2-methyl)phenethylbiguanide hydrochloride]	< 5.00		
> 5.70	COc1cc(Br)ccc1CCNC(=N)NC(=N)N [Example 81, N1-(2-methoxy-4-bromo)phenethylbiguanide hydrochloride]	5.00 to 5.30		
5.30 to 5.70	N=C(N)NCCc1ccc(C2CC2)cc1 [Example 182, 1-(4-cyclopropylphenethyl)guanide hydrochloride]	5.00 to 5.30		
5.30 to 5.70	COc1cc(CCNC(=N)NC(=N)N)ccc1I [Example 77, N-1-(4-iodo-3-methoxy)phenethylbiguanide hydrochloride]	5.00 to 5.30		
5.30 to 5.70	N=C(N)NC(=N)NCCc1ccc(Cl)c(Br)c1 [Example 76, N-1-(3-bromo-4-chloro)phenethylbiguanide hydrochloride]	> 5.30		
> 5.70	COc1cc(I)ccc1CCNC(=N)NC(=N)N [Example 79, N-1-(2-methoxy-4-iodo)phenethylbiguanide hydrochloride]	5.00 to 5.30		
5.30 to 5.70	N=C(N)NC(=N)NCCc1ccc(Br)c(Br)c1 [Example 70, N-1-(3,4-dibromo)phenethylbiguanide hydrochloride]	> 5.30		
> 5.70	N=C(N)NCCc1ccc2c(c1)CCCC2 [Example 183, 1-(2-(5,6,7,8-tetrahydronaphthalen-2-yl)ethyl)guanide hydrochloride]	> 5.30		
> 5.70	N=C(N)NC(=N)NCc1ccc2c(c1)CCCC2 [Example 48, N-1-2-(5,6,7,8-tetrahydronaphthalen-2-yl)methanebiguanide hydrochloride]	< 5.00		
> 5.70	N=C(N)NC(=N)NCCc1ccc(Cl)c(I)c1 [Example 74, N-1-(3-iodo-4-chloro)phenethylbiguanide hydrochloride]	> 5.30		
5.30 to 5.70	N=C(N)NCCC1CCCCC1 [Example 197, 1-(2-cyclohexylethyl)guanide hydrochloride]	< 5.00		
< 5.30	N=C(N)NCc1ccc2c(c1)CCCC2 [Example 199, 1-((5,6,7,8-tetrahydronaphthalen-2-yl)methylguanide hydrochloride]	< 5.00		
< 5.30	CCCNC(=N)NC(=N)NCCc1ccc(Cl)c(Cl)c1 [Example 128, N-1-propyl-N-5-(3,4-dichloro)phenethylbiguanide hydrochloride]	> 5.30		
< 5.30	N=C(N)NC(=N)NCCc1ccc(F)c(Cl)c1 [Example 52, N-1-(3-chloro-4-fluoro)phenethylbiguanide hydrochloride]	5.00 to 5.30		
< 5.30	N=C(N)NC(=N)NCCc1ccc(I)c(Br)c1 [Example 72, N-1-(4-iodo-3-bromo)phenethylbiguanide hydrochloride]	5.00 to 5.30		
< 5.30	N=C(N)NC(=N)NCCc1ccc(I)cc1 [Example 71, N-1-(4-iodo)phenethylbiguanide hydrochloride]	< 5.00		
< 5.30	Cc1ccc(CNC(=N)NC(=N)N)c(C)c1 [Example 18, N-1-(2,4-dimethyl)benzylbiguanide hydrochloride]	< 5.00		
